The test system of data set [1] is RIF-1. The data set is described as follows: Cytotoxicity against mouse RIF1 cells at 250 to 750 uM after 24 hrs. It is filed as cell-based. Conditions: rif-1, 24 h.
Data set [2] has as its system RIF-1. Nature of the data set: Inhibition of COX2 expression levels in PH-PDT-treated mouse RIF1 cells at 500 uM after 24 hrs by Western blot analysis. It is filed as functional, cell-based. Background: A western blot detects proteins with antibodies after separation by electrophoresis.
Data set [3] concerns the target T1, Prostaglandin G/H synthase 2 (Mus musculus) (UniProt Q05769).
T1 sequence (whole entry): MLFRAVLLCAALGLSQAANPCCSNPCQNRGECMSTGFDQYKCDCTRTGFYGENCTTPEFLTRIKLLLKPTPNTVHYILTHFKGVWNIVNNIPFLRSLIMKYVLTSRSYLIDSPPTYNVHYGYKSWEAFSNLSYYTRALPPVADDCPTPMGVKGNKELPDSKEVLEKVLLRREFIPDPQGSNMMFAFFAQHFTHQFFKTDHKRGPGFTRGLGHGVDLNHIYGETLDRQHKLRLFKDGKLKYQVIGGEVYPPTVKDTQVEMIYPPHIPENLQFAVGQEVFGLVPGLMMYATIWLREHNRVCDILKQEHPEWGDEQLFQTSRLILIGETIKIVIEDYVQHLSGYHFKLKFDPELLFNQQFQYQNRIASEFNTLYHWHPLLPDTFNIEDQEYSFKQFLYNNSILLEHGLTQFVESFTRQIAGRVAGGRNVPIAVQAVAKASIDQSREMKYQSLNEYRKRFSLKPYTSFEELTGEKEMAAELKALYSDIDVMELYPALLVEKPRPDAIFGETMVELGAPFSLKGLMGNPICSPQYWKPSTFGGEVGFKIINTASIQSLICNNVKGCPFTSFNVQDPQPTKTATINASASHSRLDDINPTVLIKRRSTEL
Nature of the data set: Inhibition of COX-2 in PH-PDT-treated mouse RIF1 cells assessed as suppression of PGE2 production at 250 uM after 24 hrs by spectrophotometric analysis.

Data set [4] relates to RIF-1. Nature of the data set: Inhibition of COX2 expression levels in PH-PDT-treated mouse RIF1 cells at 250 uM after 24 hrs by Western blot analysis. It is filed as functional, cell-based.
Data set [5] relates to RIF-1. The data set is described as follows: Inhibition of COX2 expression levels in PH-PDT-treated mouse RIF1 cells at 400 uM after 24 hrs by Western blot analysis. It is filed as functional, cell-based.
Data set [6] deals with RIF-1. Nature of the data set: Cytotoxicity against mouse RIF1 cells at 50 to 800 uM after 24 hrs. Type of data set: cell-based. Conditions: rif-1, 24 h.
Data set [7] deals with T1, Prostaglandin G/H synthase 2 (Mus musculus). The data set is described as follows: Inhibition of COX-2 in PH-PDT-treated mouse RIF1 cells assessed as suppression of PGE2 production at 500 uM after 24 hrs by spectrophotometric analysis.
Data set [8] deals with RIF-1. Nature of the data set: Cytotoxicity against mouse RIF1 cells at 500 to 1000 uM after 24 hrs. It is filed as cell-based. Conditions: rif-1, 24 h.
Data set [9] concerns RIF-1. The data set is described as follows: Inhibition of COX2 expression levels in PH-PDT-treated mouse RIF1 cells at 62.5 uM after 24 hrs by Western blot analysis. Type of data set: functional, cell-based.
Data set [10] addresses T1, Prostaglandin G/H synthase 2 (Mus musculus). Nature of the data set: Inhibition of COX-2 in PH-PDT-treated mouse RIF1 cells assessed as suppression of PGE2 production at 750 uM after 24 hrs by spectrophotometric analysis.
Data set [11] has as its system RIF-1. The data set is described as follows: Cytotoxicity against mouse RIF1 cells at 62.5 to 750 uM after 24 hrs. It is filed as cell-based. Conditions: rif-1, 24 h.
The subject of data set [12] is RIF-1. Nature of the data set: Inhibition of COX2 expression levels in PH-PDT-treated mouse RIF1 cells at 750 uM after 24 hrs by Western blot analysis. Type of data set: functional, cell-based.
Data set [13] deals with T1, Prostaglandin G/H synthase 2 (Mus musculus). Nature of the data set: Inhibition of COX-2 in PH-PDT-treated mouse RIF1 cells assessed as suppression of PGE2 production at 200 uM after 24 hrs by spectrophotometric analysis.
Data set [14] shares this target. The data set is described as follows: Inhibition of COX-2 in PH-PDT-treated mouse RIF1 cells assessed as suppression of PGE2 production at 400 uM after 24 hrs by spectrophotometric analysis.
Data set [15] has as its system RIF-1. The data set is described as follows: Inhibition of COX2 expression levels in PH-PDT-treated mouse RIF1 cells at 800 uM after 24 hrs by Western blot analysis. Type of data set: functional, cell-based.
For data set [16], the target named is T1, Prostaglandin G/H synthase 2 (Mus musculus). The data set is described as follows: Inhibition of COX-2 in PH-PDT-treated mouse RIF1 cells assessed as suppression of PGE2 production at 800 uM after 24 hrs by spectrophotometric analysis.
Data set [17] has as its system RIF-1. Nature of the data set: Cytotoxicity against mouse RIF1 cells at 100 to 800 uM after 24 hrs. It is filed as cell-based. Conditions: rif-1, 24 h.

Active and inactive are the calls of the source. The rule behind the calls is not given here.

Consider `Cc1cc(O)c(C)c2c1CC[C@H]1[C@H](C)C(=O)O[C@@H]21`, for which the Activity entry in the data set with RIF-1 [1] is recorded as “Non-Toxic”. For the same compound, the inhibition result (with RIF-1 [2]; in data set [3]) was “Active” each time. For the same compound, the inhibition entry with RIF-1 [4] is “inactive”.
As for `Cc1cc(OCc2ccc(C(F)(F)F)cc2)c(C)c2c1CC[C@H]1[C@H](C)C(=O)O[C@@H]21`, the inhibition result with RIF-1 [5] was “Active”. Further, the Activity entry in the data set with RIF-1 [6] is “Non-Toxic”.
For `CC1=C2[C@@H]3OC(=O)[C@@H](C)[C@@H]3CC[C@@]2(C)C=CC1=O`, the inhibition entry (in the data set with RIF-1 [2]; in data set [7]) was “Active” throughout. Besides, the Activity result in the data set with RIF-1 [8] is “Non-Toxic”.
As to `Cc1cc(OCc2ccccc2)c(C)c2c1CC[C@H]1[C@H](C)C(=O)O[C@@H]21`, the inhibition entry (in the data set on RIF-1 [9]; with RIF-1 [2]; in data set [7]; in data set [10]; with RIF-1 [12]) was “Active” in each case. In the data set with RIF-1 [11], the Activity result is reported as “Toxic”.
For the compound `CC(=O)Oc1cc(C)c2c(c1C)[C@@H]1OC(=O)[C@@H](C)[C@@H]1CC2`, the inhibition entry (in data set [13]; in [14]; in the data set with RIF-1 [15]) was “Active” in each case. Besides, the inhibition result (in the data set with RIF-1 [5]; in data set [16]) was “inactive” in each case. The Activity result in the data set on RIF-1 [17] was “Non-Toxic”.

Source of the values: ChEMBL document CHEMBL4219112, “Rational drug design and synthesis of new α-Santonin derivatives as potential COX-2 inhibitors” (Bioorg Med Chem Lett, 2018).
